This passage reports Activity results from patent publication US7452887B2, “Quinoline- and isoquinoline-based compounds exhibiting ATP-utilizing enzyme inhibitory activity, and compositions, and uses thereof” (Amphora Discovery Corporation, priority 2004, dated 2008).

One assay deals with T1, PRAK (Homo sapiens, UniProt Q8IW41).
T1 sequence (Q8IW41 1-473): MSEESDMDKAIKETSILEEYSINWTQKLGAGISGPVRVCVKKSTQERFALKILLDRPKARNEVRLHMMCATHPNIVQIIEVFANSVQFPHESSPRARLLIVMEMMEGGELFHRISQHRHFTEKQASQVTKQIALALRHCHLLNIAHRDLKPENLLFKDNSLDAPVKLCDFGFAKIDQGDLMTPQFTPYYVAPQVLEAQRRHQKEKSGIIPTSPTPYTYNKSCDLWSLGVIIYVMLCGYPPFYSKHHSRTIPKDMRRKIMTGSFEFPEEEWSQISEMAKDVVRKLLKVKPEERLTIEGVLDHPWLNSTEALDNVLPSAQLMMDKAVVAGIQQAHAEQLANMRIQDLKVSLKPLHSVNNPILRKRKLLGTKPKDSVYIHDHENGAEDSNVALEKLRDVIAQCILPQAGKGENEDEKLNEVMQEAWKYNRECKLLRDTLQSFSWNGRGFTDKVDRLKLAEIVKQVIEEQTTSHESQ
Briefly: HTS ATP-utilizing enzyme assay, off-chip mobility-shift (Caliper HTS 250). The following applies: test compound 10 μM, kinase listed = active (greater than six-sigma from the mean activity of inactive compounds). In kind it is biochemical. The text has this: The following procedures describe the reagent and plate preparation for a HTS of an ATP-utilizing enzyme, such as a protein kinase, run in an off-chip mobility-shift assay format. The following provides an HTS protocol for running a protein kinase HTS screen on a Caliper HTS 250 microfluidics system. The following parameters are dependent on the protein kinase used and can be determined by one skilled in the art as part of a typical assay development process. For example, the peptide substrate used can be identified from the current literature, by screening a peptide library of potential protein kinase substrates, or by other applicable means accepted in the field.
The following table provides typical screen assay parameters appropriate for a Caliper HTS 250 microfluidics system.
The reagents and buffers listed in the following table are generally applicable for developing and running an HTS screen on a human protein kinase using the Caliper HTS 250 system.
The following reagents were prepared using the previously described buffers.
A 2× Master Buffer solution was prepared by combining 200 mL of 1 M HEPES, pH 7.5, 2 mL of 10% Triton X-100, 20 mL of 10% BSA, and 778 mL of H2O.
A 2.5× Substrate Buffer solution was prepared by combining 177.408 mL of 2× Master Buffer, 0.887 mL of 1 mM peptide-X, and 176.521 mL of H2O.
A 1.55× Termination Buffer solution was prepared by combining 762.05 mL of 2× Master Buffer, 95.1 mL of 0.5 M EDTA, and 666.94 mL of H2O.
A TCB Buffer solution was prepared by combining 125 mL of 2× Master Buffer, 10 mL of 0.5 M EDTA, 6.25 mL of 4% coating reagent, 1.01 mL of 100% DMSO, and 107.74 mL H2O.
A Dye Trough solution was prepared by combining 0.5 μL of peptide-X, and 2,999.5 μL of IX Master Buffer.
A 1.06× Assay Buffer solution was prepared by combining 205.15 mL of 2× Master Buffer, and 181.92 mL of H2O.
Assays to determine the kinase inhibitory activity of compounds of the present disclosure were performed using a Caliper HTS 250 microfluidics device, Greiner U-bottom assay plates, a Multidrop for transfer of reagents, and Biomek FX (AMNCBM03) software. Initially, 2.4 μL of a 1 mM solution of a test compound in 100% DMSO was added to a well of the Greiner U-bottom plate. A single Greiner U-bottom plate having 24×16 wells could include multiple test compounds. Next, […] of 1.06× Assay Buffer was added to each well of the assay plate. Using the Biomek FX, 10 μL of 0.5 M EDTA was added by the span-8 to wells, indicated as 100% Control and 2.4 μL of 100% DMSO was added by the span-8 to wells, indicated as 0% Control. Using the Multidrop, 10 μL of 2.5× Enzyme Buffer, followed by 10 μL of 2.5× Substrate Buffer was added to each well of the assay plate. The total reaction volume in each well was 25 μL, and the concentration of the test compound was 10 μM. The assay plate was incubated for 2.5 hrs at 20° C. to 22° C. After the incubation period, using the Multidrop, 45 μL of 1.55× Termination Buffer was added to each well of the assay plate to stop the reaction. The inhibition of the ATP-utilizing enzyme, such as a particular protein kinase, was determined by measuring the ratio of the peptide substrate to phosphorylated product for each well of the assay plate using the Caliper HTS 250 system.
The use of six-sigma statistical limits represents a conservative method for declaring potential hits among targets. The six-sigma activity, as well as the mean population activity, can be different for each target enzyme. This method has an expected false positive rate, from an in-control measurement process, of one in one million.

The target in another assay is MAPKAPK2 (Homo sapiens, UniProt P49137). The assay is described as above. It counts as biochemical. The conditions noted are these: test compound 10 μM, kinase listed = active (greater than six-sigma from the mean activity of inactive compounds). In a few lines: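 Phosphorylation of a peptide substrate was quantified by Caliper mobility-shift separation of substrate and product after 2.5 h at 20-22 °C, with compounds tested at 10 μM. Inhibition was normalized to EDTA-quenched (100%) and DMSO (0%) controls; six-sigma thresholds flagged actives.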
MAPKAPK2, sequence (P49137 whole entry): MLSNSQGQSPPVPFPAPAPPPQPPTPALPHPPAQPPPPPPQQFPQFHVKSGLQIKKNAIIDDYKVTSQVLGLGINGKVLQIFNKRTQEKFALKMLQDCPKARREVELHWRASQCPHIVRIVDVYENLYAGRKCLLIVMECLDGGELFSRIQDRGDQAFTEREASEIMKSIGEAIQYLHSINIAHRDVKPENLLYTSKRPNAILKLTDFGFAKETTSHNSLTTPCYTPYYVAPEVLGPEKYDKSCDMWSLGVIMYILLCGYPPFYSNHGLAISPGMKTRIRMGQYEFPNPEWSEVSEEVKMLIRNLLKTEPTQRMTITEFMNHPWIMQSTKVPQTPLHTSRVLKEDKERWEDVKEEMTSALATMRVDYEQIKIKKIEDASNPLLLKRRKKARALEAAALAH

For the compound `CC(=O)c1ccc(-c2ccc3nccc(Nc4ccc(N5CCN(C)CC5)cc4)c3c2)s1` [1-(5-(4-(4-(4-methylpiperazin-1-yl)phenylamino)quinolin-6-yl)thiophen-2-yl)ethanone], the Activity entry on PRAK is reported as “PRAK”; at MAPKAPK2 it was “MAPKAPK2”.
The corresponding values for `N#Cc1ccc(-c2ccc3nccc(Nc4ccc(N5CCN(CC(=O)O)CC5)cc4)c3c2)cc1` [2-(4-(4-(6-(4-cyanophenyl)quinolin-4-ylamino)phenyl)piperazin-1-yl)acetic acid] are “PRAK” and “MAPKAPK2”.
The corresponding values for `OCCCN1CCN(c2ccc(Nc3ccnc4ccc(-c5ccccc5)cc34)cc2)CC1` [3-(4-(4-(6-phenylquinolin-4-ylamino)phenyl)piperazin-1-yl)propan-1-ol] are “PRAK” and “MAPKAPK2”.
For `N#CCCN1CCN(c2ccc(Nc3ccnc4ccc(-c5ccccc5)cc34)cc2)CC1` [3-(4-(4-(6-phenylquinolin-4-ylamino)phenyl)piperazin-1-yl)propanenitrile], in that order: “PRAK” and “MAPKAPK2”.
Consider `CN(C)C1CCN(c2ccc(Nc3ccnc4ccc(-c5ccc(C#N)cc5)cc34)cc2)C1` (centres unmarked) [4-(4-(4-(3-(dimethylamino)pyrrolidin-1-yl)phenylamino)quinolin-6-yl)benzonitrile], for which the Activity entry on PRAK is “PRAK”.
For the compound `N#CCCN1CCN(c2ccc(Nc3ccnc4ccc(-c5ccc(C#N)cc5)cc34)cc2)CC1` [4-(4-(4-(4-(2-cyanoethyl)piperazin-1-yl)phenylamino)quinolin-6-yl)benzonitrile], the Activity result was “PRAK” at PRAK and “MAPKAPK2” at MAPKAPK2.
For `CCN1CCN(c2ccc(Nc3ccnc4ccc(-c5ccc(C#N)cc5)cc34)cc2)CC1` [4-(4-(4-(4-ethylpiperazin-1-yl)phenylamino)quinolin-6-yl)benzonitrile], in that order: “PRAK” and “MAPKAPK2”.
Consider `CCCN1CCN(c2ccc(Nc3ccnc4ccc(-c5ccc(C#N)cc5)cc34)cc2)CC1` [4-(4-(4-(4-propylpiperazin-1-yl)phenylamino)quinolin-6-yl)benzonitrile], for which the Activity entry at PRAK is given as “PRAK”; at MAPKAPK2, “MAPKAPK2”.
`N#Cc1ccc(-c2ccc3nccc(Nc4ccc(N5CCNCC5)cc4)c3c2)cc1` [4-(4-(4-(piperazin-1-yl)phenylamino)quinolin-6-yl)benzonitrile]: the Activity result at PRAK is on record as “PRAK”; on MAPKAPK2 it was “MAPKAPK2”.
For `COc1ccc(OC)c(-c2ccc3nccc(Nc4ccc(N5CCN(C)CC5)cc4)c3c2)c1` [6-(2,5-dimethoxyphenyl)-N-(4-(4-methylpiperazin-1-yl)phenyl)quinolin-4-amine], in that order: “PRAK” and “MAPKAPK2”.
As for `CN1CCN(c2ccc(Nc3ccnc4ccc(-c5c(F)cccc5F)cc34)cc2)CC1` [6-(2,6-difluorophenyl)-N-(4-(4-methylpiperazin-1-yl)phenyl)quinolin-4-amine], the values for the Activity result at PRAK and on MAPKAPK2 were “PRAK” and “MAPKAPK2”, respectively.
The corresponding values for `CN1CCN(c2ccc(Nc3ccnc4ccc(-c5ccccc5F)cc34)cc2)CC1` [6-(2-fluorophenyl)-N-(4-(4-methylpiperazin-1-yl)phenyl)quinolin-4-amine] are “PRAK” and “MAPKAPK2”.
The corresponding values for `CN1CCN(c2ccc(Nc3ccnc4ccc(-c5ccc(F)c(F)c5)cc34)cc2)CC1` [6-(3,4-difluorophenyl)-N-(4-(4-methylpiperazin-1-yl)phenyl)quinolin-4-amine] are “PRAK” and “MAPKAPK2”.
For `CN1CCN(c2ccc(Nc3ccnc4ccc(-c5cc(F)cc(F)c5)cc34)cc2)CC1` [6-(3,5-difluorophenyl)-N-(4-(4-methylpiperazin-1-yl)phenyl)quinolin-4-amine], in that order: “PRAK” and “MAPKAPK2”.
For `CN1CCN(c2ccc(Nc3ccnc4ccc(-c5cccc(F)c5)cc34)cc2)CC1` [6-(3-fluorophenyl)-N-(4-(4-methylpiperazin-1-yl)phenyl)quinolin-4-amine], the Activity result at PRAK is given as “PRAK”; at MAPKAPK2, “MAPKAPK2”.
`CC(C)c1cccc(-c2ccc3nccc(Nc4ccc(N5CCN(C)CC5)cc4)c3c2)c1` [6-(3-isopropylphenyl)-N-(4-(4-methylpiperazin-1-yl)phenyl)quinolin-4-amine]: the figures for the Activity entry at PRAK and on MAPKAPK2 were “PRAK” and “MAPKAPK2”, respectively.
In the case of `CCCCc1ccc(-c2ccc3nccc(Nc4ccc(N5CCN(C)CC5)cc4)c3c2)cc1` [6-(4-butylphenyl)-N-(4-(4-methylpiperazin-1-yl)phenyl)quinolin-4-amine], the Activity entry on PRAK is on record as “PRAK”; at MAPKAPK2, “MAPKAPK2”.
The corresponding values for `CN1CCN(c2ccc(Nc3ccnc4ccc(-c5ccc(Cl)cc5)cc34)cc2)CC1` [6-(4-chlorophenyl)-N-(4-(4-methylpiperazin-1-yl)phenyl)quinolin-4-amine] are “PRAK” and “MAPKAPK2”.
For `CCOc1ccc(-c2ccc3nccc(Nc4ccc(N5CCN(C)CC5)cc4)c3c2)cc1` [6-(4-ethoxyphenyl)-N-(4-(4-methylpiperazin-1-yl)phenyl)quinolin-4-amine], in that order: “PRAK” and “MAPKAPK2”.
As to `Cc1cc(F)ccc1-c1ccc2nccc(Nc3ccc(N4CCN(C)CC4)cc3)c2c1` [6-(4-fluoro-2-methylphenyl)-N-(4-(4-methylpiperazin-1-yl)phenyl)quinolin-4-amine], the Activity result is “PRAK” on PRAK and “MAPKAPK2” at MAPKAPK2.
For `COc1ccc(F)cc1-c1ccc2nccc(Nc3ccc(N4CCN(C)CC4)cc3)c2c1` [6-(5-fluoro-2-methoxyphenyl)-N-(4-(4-methylpiperazin-1-yl)phenyl)quinolin-4-amine], in that order: “PRAK” and “MAPKAPK2”.
`CN1CCN(c2ccc(Nc3ccnc4ccc(-c5cccc(C(F)(F)F)c5)cc34)cc2)CC1` [N-(4-(4-methylpiperazin-1-yl)phenyl)-6-(3-(trifluoromethyl)phenyl)quinolin-4-amine]: the Activity entry at PRAK is “PRAK”.
`CSc1ccc(-c2ccc3nccc(Nc4ccc(N5CCN(C)CC5)cc4)c3c2)cc1` [N-(4-(4-methylpiperazin-1-yl)phenyl)-6-(4-(methylthio)phenyl)quinolin-4-amine]: the Activity entry on PRAK is given as “PRAK”.
On the same count and under the same terms, as for `CN1CCN(c2ccc(Nc3ccnc4ccc(-c5ccccc5)cc34)cc2)CC1` [N-(4-(4-methylpiperazin-1-yl)phenyl)-6-phenylquinolin-4-amine], the entry is “PRAK”.
